Assays:
TLR7 = target: T1, TLR7 (Homo sapiens, UniProt Q9NYK1); test: HEK/293 TLR7 Cell Assay; type: cell-based; conditions: TLR7/NFKb HEK cells, R848 agonist 10 uM final concentration, Steady-Glo readout; read-out: TLR7 potency
T1 construct: expressed in transfected cells; host or cells: HEK/293 cells carrying TLR7 and an NF-kB luciferase reporter
T1 sequence (Q9NYK1 27-1049): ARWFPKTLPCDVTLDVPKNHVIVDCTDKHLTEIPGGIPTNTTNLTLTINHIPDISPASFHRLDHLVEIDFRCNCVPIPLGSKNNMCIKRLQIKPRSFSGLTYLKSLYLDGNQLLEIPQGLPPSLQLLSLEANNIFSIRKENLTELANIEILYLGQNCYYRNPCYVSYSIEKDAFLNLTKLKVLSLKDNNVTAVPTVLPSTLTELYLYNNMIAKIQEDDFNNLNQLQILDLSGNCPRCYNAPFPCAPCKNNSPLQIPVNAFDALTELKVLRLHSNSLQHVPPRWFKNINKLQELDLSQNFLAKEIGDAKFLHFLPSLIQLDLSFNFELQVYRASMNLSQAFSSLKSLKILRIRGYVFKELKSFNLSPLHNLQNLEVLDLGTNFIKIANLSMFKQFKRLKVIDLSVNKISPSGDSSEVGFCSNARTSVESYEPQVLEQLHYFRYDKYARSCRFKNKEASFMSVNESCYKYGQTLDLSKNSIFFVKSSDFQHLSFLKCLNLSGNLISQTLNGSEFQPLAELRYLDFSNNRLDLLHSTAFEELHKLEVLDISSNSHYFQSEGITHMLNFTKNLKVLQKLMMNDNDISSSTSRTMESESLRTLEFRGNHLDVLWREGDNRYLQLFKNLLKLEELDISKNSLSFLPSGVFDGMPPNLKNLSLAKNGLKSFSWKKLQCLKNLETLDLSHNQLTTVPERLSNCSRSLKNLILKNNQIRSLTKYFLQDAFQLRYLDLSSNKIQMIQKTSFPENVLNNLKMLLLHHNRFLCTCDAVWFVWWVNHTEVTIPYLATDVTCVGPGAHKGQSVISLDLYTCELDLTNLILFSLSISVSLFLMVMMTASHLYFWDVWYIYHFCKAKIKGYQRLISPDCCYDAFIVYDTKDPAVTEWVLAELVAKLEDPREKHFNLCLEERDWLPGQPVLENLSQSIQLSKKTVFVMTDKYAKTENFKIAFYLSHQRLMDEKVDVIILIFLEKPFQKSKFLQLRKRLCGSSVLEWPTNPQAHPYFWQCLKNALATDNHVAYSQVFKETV
Outline: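 Compounds added to HEK cells expressing TLR7 with an NFκB reporter 30 min ahead of 10 uM R848 challenge; luciferase signal (Steady-Glo) measured after 5 h, cells having been seeded 24 h earlier at 5000 per well.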

TLR8 = target: T2, TLR8 (Homo sapiens, UniProt Q9NR97); test: HEK/293 TLR8 Cell Assay; type: cell-based; conditions: HEK cells, R848 agonist 30 uM final concentration, Steady-Glo readout; read-out: TLR8 potency
T2 construct: expressed in transfected cells; host or cells: HEK/293 reporter cells (NF-kB luciferase)
T2 sequence (Q9NR97 27-1041): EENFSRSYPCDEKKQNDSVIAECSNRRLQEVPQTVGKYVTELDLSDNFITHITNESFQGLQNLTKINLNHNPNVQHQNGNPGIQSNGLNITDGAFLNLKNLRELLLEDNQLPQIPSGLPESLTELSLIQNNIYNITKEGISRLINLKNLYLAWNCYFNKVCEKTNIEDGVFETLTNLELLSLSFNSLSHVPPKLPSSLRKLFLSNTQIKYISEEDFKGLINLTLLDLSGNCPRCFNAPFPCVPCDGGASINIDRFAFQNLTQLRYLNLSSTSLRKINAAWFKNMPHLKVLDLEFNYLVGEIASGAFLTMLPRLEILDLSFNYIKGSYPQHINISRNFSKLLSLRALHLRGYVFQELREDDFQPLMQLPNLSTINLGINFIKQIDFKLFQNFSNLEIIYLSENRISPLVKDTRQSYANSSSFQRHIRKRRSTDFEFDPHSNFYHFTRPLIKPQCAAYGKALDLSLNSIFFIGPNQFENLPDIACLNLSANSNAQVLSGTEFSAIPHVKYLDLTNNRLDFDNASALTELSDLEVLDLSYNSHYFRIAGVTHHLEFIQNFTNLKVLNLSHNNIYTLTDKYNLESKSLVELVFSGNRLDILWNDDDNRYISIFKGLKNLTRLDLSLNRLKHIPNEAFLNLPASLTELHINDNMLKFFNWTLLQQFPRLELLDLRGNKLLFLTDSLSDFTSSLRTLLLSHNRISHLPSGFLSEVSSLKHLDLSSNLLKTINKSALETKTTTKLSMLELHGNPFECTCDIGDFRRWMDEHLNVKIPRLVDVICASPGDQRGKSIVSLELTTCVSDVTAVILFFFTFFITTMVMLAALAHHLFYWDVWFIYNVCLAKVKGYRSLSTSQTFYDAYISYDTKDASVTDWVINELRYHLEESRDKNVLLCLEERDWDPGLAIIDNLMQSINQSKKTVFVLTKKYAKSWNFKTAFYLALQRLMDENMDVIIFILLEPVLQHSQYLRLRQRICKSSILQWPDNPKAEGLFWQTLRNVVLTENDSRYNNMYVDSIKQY

IC50 (TLR7)	IC50 (TLR8)	SMILES
< 75 nM	< 75 nM	C[C@H]1C[C@@H](NC(=O)C[C@H]2[C@@H]3C[C@H]2CN(C)C3)CN(c2ccc(C(F)(F)F)c3ncccc23)C1 [Example 106, N-[(3R,5S)-5-methyl-1-[8-(trifluoromethyl)quinolin-5-yl]piperidin-3-yl]-2-[(1R,5S,6s)-3-methyl-3-azabicyclo[3.1.1]heptan-6-yl]acetamide]
< 75 nM	< 75 nM	C[C@@H]1C[C@H](NC(=O)C[C@@H]2[C@@H]3C[C@H]2CN(C)C3)CN(c2ccc(C(F)(F)F)c3ncccc23)C1 [Example 107, N-((3S,5R)-5-methyl-1-(8-(trifluoromethyl)quinolin-5-yl)piperidin-3-yl)-2-((1R,5S,6r)-3-methyl-3-azabicyclo[3.1.1]heptan-6-yl)acetamide]
< 75 nM	< 75 nM	Cc1ccc(N2C[C@@H](C)C[C@@H](NC(=O)CC3CCN(C(C)C)CC3)C2)c2cccnc12 [Example 108, 2-(1-Isopropyl-piperidin-4-yl)-N-[(3R,5S)-5-methyl-1-(8-methyl-quinolin-5-yl)-piperidin-3-yl]-acetamide]
> 150 nM	75 to 150 nM	Cc1ccc(N2C[C@H](NC(=O)CC3CCN(C(C)C)CC3)C[C@H](C(F)(F)F)C2)c2cccnc12 [Example 109, 2-(1-Isopropyl-piperidin-4-yl)-N-[(3R,5S)-1-(8-methyl-quinolin-5-yl)-5-trifluoromethyl-piperidin-3-yl]-acetamide]
< 75 nM	> 150 nM	Cc1ccc(N2C[C@H](NC(=O)CC3CCN(C(C)C)CC3)CC(F)(F)C2)c2cccnc12 [Example 110, N—[(R)-5,5-Difluoro-1-(8-methyl-quinolin-5-yl)-piperidin-3-yl]-2-(1-isopropyl-piperidin-4-yl)-acetamide]
> 150 nM	> 150 nM	Cc1ccc(N2C[C@@H](NC(=O)CC3CCN(C(C)C)CC3)CC(F)(F)C2)c2cccnc12 [Example 111, N—[(S)-5,5-Difluoro-1-(8-methyl-quinolin-5-yl)-piperidin-3-yl]-2-(1-isopropyl-piperidin-4-yl)-acetamide]
< 75 nM	< 75 nM	Cc1c(F)cc(N2C[C@@H](C)C[C@@H](NC(=O)CC3C4CC3CN(C)C4)C2)c2cccnc12 (stereo partly drawn) [Example 112, N-[(3R,5S)-1-(7-Fluoro-8-methyl-quinolin-5-yl)-5-methyl-piperidin-3-yl]-2-(3-methyl-3-aza-bicyclo[3.1.1]hept-6-yl)-acetamide]
75 to 150 nM	< 75 nM	Cc1c(F)cc(N2C[C@H](NC(=O)CC3C4CC3CN(C)C4)C[C@H](C(F)(F)F)C2)c2cccnc12 (stereo partly drawn) [Example 113, N-[(3R,5S)-1-(7-Fluoro-8-methyl-quinolin-5-yl)-5-trifluoromethyl-piperidin-3-yl]-2-(3-methyl-3-aza-bicyclo[3.1.1]hept-6-yl)-acetamide]
> 150 nM	< 75 nM	Cc1c(F)cc(N2C[C@H](NC(=O)[C@@H]3CCCN3)C[C@H](C(F)(F)F)C2)c2cccnc12 [Example 115, (2S)—N-[(3R,5S)-1-(7-fluoro-8-methylquinolin-5-yl)-5-(trifluoromethyl)piperidin-3-yl]pyrrolidine-2-carboxamide]

SMILES	IC50 (TLR7)	IC50 (TLR8)
C[C@H]1C[C@@H](NC(=O)CC2(F)CCNCC2)CN(c2ccc(C#N)c3nccnc23)C1 [Example 114, N-[(3R,5S)-1-(8-cyanoquinoxalin-5-yl)-5-methylpiperidin-3-yl]-2-(4-fluoropiperidin-4-yl)acetamide]	< 75 nM	< 75 nM
C[C@H]1C[C@@H](NC(=O)[C@@H]2C[C@H](O)CN2)CN(c2ccc(C#N)c3nccnc23)C1 [Example 116, (2S,4S)—N-[(3R,5S)-1-(8-cyanoquinoxalin-5-yl)-5-methylpiperidin-3-yl]-4-hydroxypyrrolidine-2-carboxamide]	> 150 nM	< 75 nM

From patent US20210300940A1 (Merck Patent GmbH, priority 2018, published 2021)
